Measurements reported in PMC8329432 (Journal of Ethnopharmacology, 2021).

Molecular target: GPR35 (Homo sapiens, UniProt Q9HC97)
Assay: label-free dynamic mass redistribution
Type: cell-based
Conditions: read-out: EC50/IC50; agonist mode; HBSS, 10 mM HEPES, pH 7.4

GPR35, sequence (Q9HC97 whole entry): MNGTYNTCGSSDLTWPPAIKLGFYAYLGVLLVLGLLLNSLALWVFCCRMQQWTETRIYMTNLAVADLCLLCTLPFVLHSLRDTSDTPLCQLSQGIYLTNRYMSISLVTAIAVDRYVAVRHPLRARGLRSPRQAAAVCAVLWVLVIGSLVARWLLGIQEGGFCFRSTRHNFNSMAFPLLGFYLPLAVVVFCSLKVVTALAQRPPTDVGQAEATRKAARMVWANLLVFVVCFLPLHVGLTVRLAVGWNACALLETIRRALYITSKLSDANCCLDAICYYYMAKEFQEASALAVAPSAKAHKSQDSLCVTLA

Compound	EC50 [µM]
COc1c(O)cc2occ(-c3ccc(O)cc3)c(=O)c2c1O [LCDD-41, tectorigenin]	> 200
O=C1c2c(O)cc(O)cc2O[C@H](c2ccc(O)c(O)c2)[C@H]1O [LCDD-68, taxifolin]	> 200
O=C(/C=C/c1ccc(O)c(O)c1)O[C@@H]1[C@H](O)C[C@@](O)(C(=O)O)C[C@H]1OC(=O)/C=C/c1ccc(O)c(O)c1 [LCDD-79, isochlorogenic acid C]	114
O=C(/C=C/c1ccc(O)cc1)c1ccc(O)cc1O [LCDD-88, isoliquiritigenin]	> 200
COc1c(/C=C/C(=O)c2ccc(O)cc2)ccc(O)c1O [LCDD-93, licochalcone B]	25.1
O=C(O)[C@H]1O[C@@H](Oc2cc3oc(-c4ccccc4)cc(=O)c3c(O)c2O)[C@H](O)[C@@H](O)[C@@H]1O [LCDD-117, baicalin]	> 200
